Drawing on patent US11873291B2, “Quinoline cGAS antagonist compounds” (ImmuneSensor Therapeutics, Inc., priority 2020, dated 2024), this text covers IC50 for 72 molecules.

The test addresses T1, recombinant human cGAS (aa147-522) (Homo sapiens, UniProt Q8N884).
T1 construct: recombinant human cGAS (aa147-522); His6-SUMO (cleaved yes); made in house; host or cells: E. coli BL21/pLys
Description: In vitro inhibition assay of cGAS activity (ATP consumption, KinaseGlo Max). The test is classed as biochemical. The settings on record: Table 2, read-out: cGAS Inhibition Results IC50. Summed up: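 IC50 came from plotting % ATP consumption against log compound concentration, with leftover ATP detected by KinaseGlo Max chemiluminescence. Reactions ran 20 min at 37 °C with 1.5 μg/mL human cGAS (aa147-522), 6.6 μM ATP, 0.1 mM GTP and 0.01 mg/mL DNA at pH 7.5.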
In general terms: Kinase-Glo measures the ATP left after a reaction by luminescence.

T1 sequence (Q8N884 147-522): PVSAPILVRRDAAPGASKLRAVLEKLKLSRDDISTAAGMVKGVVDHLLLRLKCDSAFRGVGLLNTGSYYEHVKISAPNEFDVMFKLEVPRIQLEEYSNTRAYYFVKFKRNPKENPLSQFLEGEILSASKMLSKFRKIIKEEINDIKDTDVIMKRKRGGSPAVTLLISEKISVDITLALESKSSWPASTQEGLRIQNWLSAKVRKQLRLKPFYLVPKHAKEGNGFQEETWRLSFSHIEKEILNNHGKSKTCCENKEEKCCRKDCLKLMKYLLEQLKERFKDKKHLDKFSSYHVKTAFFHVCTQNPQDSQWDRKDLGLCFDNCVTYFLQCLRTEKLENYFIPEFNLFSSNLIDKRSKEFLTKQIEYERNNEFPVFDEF

For orientation: IC50 means the midpoint of a concentration-inhibition curve. As to `O=C1NCCC1Nc1cc(-n2ccnc2)c2ccc(Cl)cc2n1` (stereo not drawn) [I-367], the IC50 was above 30 µM. For `NS(=O)(=O)CC1CCCCN1c1cc(-n2ccnc2)c2ccc(Cl)c(Cl)c2n1` (stereo not drawn) [I-368], the concentration for half-maximal inhibition (IC50) was 2 to 30 µM. Turning to `O=C(O)C1CN(c2cc(-c3cn[nH]c3)c3ccc(Cl)c(Cl)c3n2)CCO1` (stereo not drawn) [I-369], the IC50 is below 2 µM. As for `Clc1ccc2c(-c3cn[nH]c3)cc(N3CCOC(c4nnn[nH]4)C3)nc2c1Cl` (stereo not drawn) [I-370], the IC50 is below 2 µM. In the case of `NC(=O)C1CN(c2cc(-c3cn[nH]c3)c3ccc(Cl)c(Cl)c3n2)CCO1` (stereo not drawn) [I-371], the IC50 is below 2 µM. For `OC[C@@H]1CN(c2cc(-c3cn[nH]c3)c3ccc(Cl)c(Cl)c3n2)CCO1` [I-372], the IC50 was below 2 µM.

For the molecule `NS(=O)(=O)C1CCCN(c2cc(-c3cn[nH]c3)c3ccc(Cl)c(Cl)c3n2)C1` (stereo not drawn) [I-373], the IC50 was below 2 µM. `O=C(O)[C@H]1CCCN1c1cc(-n2ccnc2)c2ccc(Cl)c(Cl)c2n1` [I-374]: the concentration for half-maximal inhibition (IC50) is below 2 µM. Turning to `OCCC1CCCN(c2cc(-c3cn[nH]c3)c3ccc(Cl)c(Cl)c3n2)C1` (stereo not drawn) [I-375], the IC50 was in the range of 2 to 30 µM. For the molecule `O=C1CC[C@@H](CO)N1c1cc(-n2ccnc2)c2ccc(Cl)c(Cl)c2n1` [I-376], the IC50 is above 30 µM.

As for `COc1ccc2c(-c3cn[nH]c3)cc(NCCO)nc2c1` [I-377], the IC50 was above 30 µM.

For the molecule `Clc1ccc2c(-n3ccnc3)cc(-c3cn[nH]c3)nc2c1Cl` [I-378], the IC50 was below 2 µM. In the case of `O=C(O)COc1c(Br)ccc2c(-n3ccnc3)cc(-c3ccccc3)nc12` [I-379, 2-((7-bromo-4-(1H-imidazol-1-yl)-2-phenylquinolin-8-yl)oxy)acetic acid], the IC50 was in the range of 2 to 30 µM. On to `Brc1ccc2c(-n3ccnc3)cc(-c3cccs3)nc2c1` [I-380, 7-bromo-4-(1H-imidazol-1-yl)-2-(thiophen-2-yl)quinoline], for which the IC50 lay in the range of 2 to 30 µM. As to `COc1ccccc1-c1cc(-n2ccnc2)c2ccc(Br)cc2n1` [I-381], the IC50 was above 30 µM. Turning to `COc1cccc(-c2cc(-n3ccnc3)c3ccc(Br)cc3n2)c1` [I-382], the IC50 lay within 2 to 30 µM. Take `Brc1ccc2c(-n3ccnc3)cc(-c3ccncc3)nc2c1` [I-383]: the IC50 is above 30 µM. The result for `Brc1ccc2c(-n3ccnc3)cc(-c3cccnc3)nc2c1` [I-384] reads 2 to 30 µM; that for `Cc1ccc(-c2cc(-n3ccnc3)c3ccc(Br)cc3n2)cc1` [I-385], 2 to 30 µM. `O=C(O)[C@H]1CCCN1C(=O)C[C@@H]1CCCN1c1cc(-n2ccnc2)c2ccc(Cl)c(Cl)c2n1` [I-386]: the IC50 was below 2 µM. `CC(C)(NC(=O)C[C@@H]1CCCN1c1cc(-n2ccnc2)c2ccc(Cl)c(Cl)c2n1)C(=O)O` [I-387]: the concentration for half-maximal inhibition (IC50) was below 2 µM. In the case of `O=C(C[C@@H]1CCCN1c1cc(-n2ccnc2)c2ccc(Cl)c(Cl)c2n1)N[C@@H](C(=O)O)c1ccccc1` [I-388], the IC50 was 2 to 30 µM. The result for `CN(CCC(=O)N1CCC[C@H]1C(=O)O)c1cc(-c2cn[nH]c2)c2ccc(Cl)c(Cl)c2n1` [I-389] reads below 2 µM; that for `COC(=O)CCS(=O)(=O)NC[C@@H]1CCCN1c1cc(-n2ccnc2)c2ccc(Cl)c(Cl)c2n1` [I-390], 2 to 30 µM; that for `O=C(O)c1ccccc1S(=O)(=O)NC[C@@H]1CCCN1c1cc(-n2ccnc2)c2ccc(Cl)c(Cl)c2n1` [I-391], below 2 µM. Consider `O=c1[nH]c(=O)c2ccc(S(=O)(=O)NC[C@@H]3CCCN3c3cc(-n4ccnc4)c4ccc(Cl)c(Cl)c4n3)cc2[nH]1` [I-392], for which the IC50 lay in the range of 2 to 30 µM.

Turning to `O=C1COc2ccc(S(=O)(=O)NC[C@@H]3CCCN3c3cc(-n4ccnc4)c4ccc(Cl)c(Cl)c4n3)cc2N1` [I-393], the IC50 was above 30 µM.

With `CN(CCNS(=O)(=O)c1ccc(C(F)(F)F)cc1)c1cc(-n2ccnc2)c2ccc(Cl)cc2n1` [I-394], the half-inhibitory concentration (IC50) was above 30 µM. As to `CC(=O)OCC(=O)NC1CCCN(c2cc(-n3ccnc3)c3ccc(Cl)cc3n2)C1` (stereo not drawn) [I-395, 2-((1-(7-chloro-4-(1H-imidazol-1-yl)quinolin-2-yl)piperidin-3-yl)amino)-2-oxoethyl acetate], the IC50 was 2 to 30 µM. The result for `N#CCCO[PH](=O)OCC1CCCN(c2cc(-c3cn[nH]c3)c3ccc(Cl)c(Cl)c3n2)C1` (stereo not drawn) [I-396] reads below 2 µM; that for `O=P(O)(O)CCCNc1cc(-c2cn[nH]c2)c2ccc(Cl)c(Cl)c2n1` [I-397, (3-((7,8-dichloro-4-(1H-pyrazol-4-yl)quinolin-2-yl)amino)propyl)phosphonic acid], below 2 µM; that for `CC(C)(C)OC(=O)NS(=O)(=O)N1CCOC(CNc2cc(-n3ccnc3)c3ccc(Cl)c(Cl)c3n2)C1` (stereo not drawn) [I-398, tert-butyl ((2-(((7,8-dichloro-4-(1H-imidazol-1-yl)quinolin-2-yl)amino)methyl)morpholino)sulfonyl)carbamate], 2 to 30 µM. Then `CC(C)(C)OC(=O)N1CCOC(CNc2cc(-c3cn[nH]c3)c3ccc(Cl)c(Cl)c3n2)C1` (stereo not drawn) [I-399], with 2 to 30 µM; and `CC(=O)OCC(=O)N1CCOC(CNc2cc(-c3cn[nH]c3)c3ccc(Cl)c(Cl)c3n2)C1` (stereo not drawn) [I-400], with 2 to 30 µM. On to `COc1c(Cl)ccc2c(NCCO)cc(-c3cn[nH]c3)nc12` [I-401], for which the IC50 is above 30 µM. On to `C[C@@H](Nc1cc(-c2cn[nH]c2)c2ccc(Cl)c(Cl)c2n1)C(=O)OC(C)(C)C` [I-402], for which the IC50 is 2 to 30 µM. For the molecule `COc1c(Cl)ccc2c(-c3cn[nH]c3)cc(NCCO)nc12` [I-403], the IC50 is above 30 µM.

Regarding `Clc1ccc2c(Cl)cc(-c3cn[nH]c3)nc2c1Cl` [I-404, 4,7,8-trichloro-2-(1H-pyrazol-4-yl)quinoline], the IC50 is above 30 µM. The result for `Cc1cc(-n2ccnc2)c2ccc(Cl)c(Cl)c2n1` [I-405, 7,8-dichloro-4-(1H-imidazol-1-yl)-2-methylquinoline] reads 2 to 30 µM. Then `Cc1cc(-c2cn[nH]c2)c2ccc(Cl)c(Cl)c2n1` [I-406, 7,8-dichloro-2-methyl-4-(1H-pyrazol-4-yl)quinoline], with 2 to 30 µM. On to `Cc1cc(-c2ccn[nH]2)c2ccc(Cl)c(Cl)c2n1` [I-407], for which the IC50 was above 30 µM. Consider `Clc1cccc2c(-n3ccnc3)ccnc12` [I-408, 8-chloro-4-(1H-imidazol-1-yl)quinoline], for which the IC50 is above 30 µM. As for `Brc1ccc2nccc(-n3ccnc3)c2c1` [I-409], the IC50 was above 30 µM. With `c1ccc2c(-n3ccnc3)ccnc2c1` [I-410], the IC50 was above 30 µM.

Turning to `Cc1nccn1-c1ccnc2ccccc12` [I-411], the IC50 was above 30 µM. The result for `Brc1ccc2c(-n3ccnc3)ccnc2c1` [I-412] reads 2 to 30 µM.

As to `c1ccc2c(-n3cccn3)ccnc2c1` [I-413], the IC50 is above 30 µM. `Brc1ccc2c(-n3cccn3)ccnc2c1` [I-414]: the IC50 is above 30 µM. Take `Brc1ccc2nccc(-n3cccn3)c2c1` [I-415]: the IC50 is above 30 µM. `Fc1ccc2c(-n3ccnc3)ccnc2c1` [I-416]: the IC50 is above 30 µM. Turning to `COc1ccc2c(-n3ccnc3)ccnc2c1` [I-417], the IC50 was above 30 µM. For `Brc1ccc2c(-n3cncn3)ccnc2c1` [I-418], the IC50 was above 30 µM. Turning to `Brc1ccc2c(-n3nccn3)ccnc2c1` [I-419], the IC50 is above 30 µM. Regarding `Brc1ccc2c(-n3ccnn3)ccnc2c1` [I-420], the IC50 is above 30 µM. Turning to `Cc1c(Cl)ccc2c(-n3ccnc3)ccnc12` [I-421, 7-chloro-4-(1H-imidazol-1-yl)-8-methylquinoline], the concentration for half-maximal inhibition (IC50) is 2 to 30 µM. Regarding `FC(F)(F)c1cc(-n2ccnc2)c2ccc(Cl)cc2n1` [I-422], the IC50 was above 30 µM. Then `O=C(O)/C=C/c1cc(-c2cn[nH]c2)c2ccc(Cl)c(Cl)c2n1` [I-423, 3-(7,8-dichloro-4-(1H-pyrazol-4-yl)quinolin-2-yl)acrylic acid], with below 2 µM; and `Brc1ccc2c(-n3ccnc3)cc(-c3ccccc3)nc2c1` [I-424, 7-bromo-4-(1H-imidazol-1-yl)-2-phenylquinoline], with 2 to 30 µM; and `Cn1cc(-c2cc(NCC(=O)O)c3ccc(Cl)c(Cl)c3n2)cn1` [I-425], with above 30 µM. Consider `O=C(O)CNc1cc(-c2ccn[nH]2)nc2c(Cl)c(Cl)ccc12` [I-426], for which the IC50 is above 30 µM.

Regarding `COc1ccc(-c2cc(-c3cn[nH]c3)c3ccc(Cl)c(Cl)c3n2)cc1C(=O)O` [I-427], the IC50 was below 2 µM. For `O=C(O)[C@@H]1C[C@@H](F)CN1c1cc(-c2cn[nH]c2)c2ccc(Cl)c(Cl)c2n1` [I-430], the half-inhibitory concentration (IC50) was below 2 µM.

For the molecule `O=C(O)[C@@H]1C[C@H](O)CN1c1cc(-c2cn[nH]c2)c2ccc(Cl)c(Cl)c2n1` [I-431], the IC50 was below 2 µM.

For the molecule `COC(=O)[C@@H]1C[C@H](O)CN1c1cc(-c2cn[nH]c2)c2ccc(Cl)c(Cl)c2n1` [I-432], the IC50 was in the range of 2 to 30 µM.

In the case of `O=C(O)[C@@H]1C[C@@H](O)CN1c1cc(-c2cn[nH]c2)c2ccc(Cl)c(Cl)c2n1` [I-433], the IC50 is below 2 µM. With `COC(=O)[C@@H]1C[C@@H](O)CN1c1cc(-c2cn[nH]c2)c2ccc(Cl)c(Cl)c2n1` [I-434], the concentration for half-maximal inhibition (IC50) fell in the range of 2 to 30 µM. For `C[C@@]1(C(=O)O)CCCN1c1cc(-n2ccnc2)c2ccc(Cl)c(Cl)c2n1` [I-436], the 50% inhibitory concentration (IC50) lay within 2 to 30 µM. On to `CC(C)(C)O[C@@H]1C[C@@H](C(=O)O)N(c2cc(-c3cn[nH]c3)c3ccc(Cl)c(Cl)c3n2)C1` [I-437], for which the IC50 is below 2 µM. Then `O=C(O)[C@@H]1C[C@@H](OCc2ccccc2)CN1c1cc(-c2cn[nH]c2)c2ccc(Cl)c(Cl)c2n1` [I-438], with 2 to 30 µM. As for `O=C(O)[C@@H]1C[C@@H](C2CCCCC2)CN1c1cc(-c2cn[nH]c2)c2ccc(Cl)c(Cl)c2n1` [I-439], the IC50 was in the range of 2 to 30 µM. On to `O=C(O)C[C@@H]1CCCN1c1cc(-c2cn[nH]c2)c2ccc(Cl)c(Cl)c2n1` [I-444], for which the IC50 is below 2 µM. Regarding `O=C(O)C1CCN(c2cc(-n3ccnc3)c3ccc(Cl)cc3n2)C1` (stereo not drawn) [I-445], the IC50 lay within 2 to 30 µM.
